According to US9359351B2, “Cap/endo dual inhibitors and their use in the treatment, amelioration or prevention of a viral disease” (priority 2014, dated 2016):

Legend:
[1] = target: T1, influenza A virus (IAV) PA-Nter fragment (amino acids 1-209) (Influenza A virus, UniProt P31343); experiment: biochemical; details: FRET IC50
T1 construct: PA-Nter fragment (amino acids 1-209); made in house

[2] = system: influenza A virus (IAV) A/Aichi/2/68 (H3N2); experiment: microbe, parasite or virus in culture; assay type: cell-based, influenza A virus A/Aichi/2/68 (H3N2) on MDCK cells; details: H3N2, MDCK; for IC50: 48 h, read-out: CPE IC50; for inhibition at 50 µM: read-out: CPE % inhib
[3] = target: PB2 cap binding domain (CBD) of an avian H5N1 influenza virus (Influenza A virus, UniProt Q9Q0V1); experiment: biochemical; details: Biacore KD
PB2 cap binding domain (CBD) of an avian H5N1 influenza virus, sequence (Q9Q0V1 318-483 limits assumed): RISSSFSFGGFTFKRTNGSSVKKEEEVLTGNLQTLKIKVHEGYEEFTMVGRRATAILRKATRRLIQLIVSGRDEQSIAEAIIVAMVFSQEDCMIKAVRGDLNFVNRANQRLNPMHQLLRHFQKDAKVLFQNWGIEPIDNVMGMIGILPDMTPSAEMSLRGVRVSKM

[4] = target: whole RNP complex, IAV strain A/PR/8/34 (Influenza A virus, UniProt P03428+P03433); experiment: biochemical

| SMILES | IC50 [1] [µM] | IC50 [2] [µM] | Kd [3] [µM] | IC50 [4] [µM] | inhibition at 50 µM [2] [%] |
| --- | --- | --- | --- | --- | --- |
| CC(C)N1CCn2c(CNC(=O)[C@@H](Cc3cccc(Cl)c3)NC(=O)c3n[nH]c4ncccc34)cc(=O)c(O)c2C1=O | 1.09 | > 50 | 55.1 | – | – |
| CC(C)N1CCn2c(CNc3cccc4n[nH]c(=O)n34)cc(=O)c(O)c2C1=O | 0.936 | > 50 | 99.3 | – | – |
| CC(C)N1CCn2c(CNCCNc3nccc4[nH]ncc34)cc(=O)c(O)c2C1=O | 1.46 | > 50 | – | – | – |
| CC(C)N1CCn2c(CNC(=O)c3cccc(NC(=O)c4n[nH]c5ncccc45)c3)cc(=O)c(O)c2C1=O [drawing 29] | 1.22 | – | 19.6 | – | – |
| CC(C)N1CCn2c(CNC(=O)[C@@H](Cc3cccc(Cl)c3)NC(=O)c3ccc4n[nH]c(=O)n4c3)cc(=O)c(O)c2C1=O | 2.88 | 51.7 | > 100 | – | – |
| CC(C)N1CCn2c(CNC(=O)CNC(=O)c3ccc4n[nH]c(=O)n4c3)cc(=O)c(O)c2C1=O | 1.94 | > 50 | 14.1 | – | – |
| CC(C)N1CCn2c(CNc3cc4[nH]ncc4c(Cl)n3)cc(=O)c(O)c2C1=O | 0.848 | > 50 | 305 | – | – |
| CC(C)N1CCn2c(CNC(=O)C3(NC(=O)c4c[nH]c5ncc(C6CC6)nc45)CCCCC3)cc(=O)c(O)c2C1=O | – | > 50 | – | 0.38 | – |
| CC(C)N1CCn2c(CNC(=O)[C@H](NC(=O)c3ccc4n[nH]c(=O)n4c3)c3ccccc3)cc(=O)c(O)c2C1=O | 1.45 | > 50 | > 100 | – | – |
| CCC(NC(=O)c1c[nH]c2ncc(C3CC3)nc12)C(=O)NCc1cc(=O)c(O)c2n1CCN(C(C)C)C2=O (stereo not shown) | 0.46 | > 50 | – | – | – |
| CC(C)N1CCn2c(CNC(=O)CC(NC(=O)c3c[nH]c4ncc(C5CC5)nc34)C3CC3)cc(=O)c(O)c2C1=O (stereo not shown) | – | – | – | 0.14 | 10 |
| CC(C)N1CCn2c(CNC(=O)CCCCCNC(=O)c3c[nH]c4ncc(C5CC5)nc34)cc(=O)c(O)c2C1=O | 0.57 | 31.8 | 6.36 | – | – |
| CC(C)N1CCn2c(CNC(=O)c3cccc(Nc4nccc5[nH]ncc45)c3)cc(=O)c(O)c2C1=O | 0.55 | 21.8 | 97.6 | – | – |
| CC(C)[C@@H](CC(=O)NCc1cc(=O)c(O)c2n1CCN(C(C)C)C2=O)Nc1nc(C2=CN3C(=O)N=NC3C=C2)ncc1F (stereo partly shown) | – | > 1.28 | – | 8.15 | – |
| CC(C)N1CCn2c(CNCCOC(=O)c3cccn4c(=O)[nH]nc34)cc(=O)c(O)c2C1=O | 1.41 | > 50 | > 100 | – | – |
| CC(C)N1CCn2c(CNC(=O)CNC(=O)c3c[nH]c4ncc(C5CC5)nc34)cc(=O)c(O)c2C1=O | 0.27 | > 50 | 3.96 | – | – |
| CC(C)N1CCn2c(CNC(=O)[C@H](NC(=O)c3c[nH]c4ncc(C5CC5)nc34)c3ccccc3)cc(=O)c(O)c2C1=O | 2.34 | 8.2 | – | – | – |
| CC(C)[C@H](NC(=O)c1c[nH]c2ncc(C3CC3)nc12)C(=O)NCc1cc(=O)c(O)c2n1CCN(C(C)C)C2=O | 0.75 | 42 | 16.8 | – | – |
| CC(C)N1CCn2c(CNC(=O)C[C@H](NC(=O)c3c[nH]c4ncc(C5CC5)nc34)c3ccccc3)cc(=O)c(O)c2C1=O | – | > 33.7 | – | 1.53 | – |
| CC(C)[C@H](NC(=O)c1cccn2c(=O)[nH]nc12)c1cc(=O)c(O)c2n1CCN(C(C)C)C2=O | 0.83 | > 50 | 163 | – | – |
| CC(C)N1CCn2c(CNC(=O)c3cccn4c(=O)[nH]nc34)cc(=O)c(O)c2C1=O | 0.28 | > 50 | > 50 | – | – |
| CC(C)[C@H](Nc1nc(-c2n[nH]c3ncc(F)cc23)ncc1F)C(=O)NCc1cc(=O)c(O)c2n1CCN(C(C)C)C2=O | 8.04 | > 50 | 10 | – | – |

| SMILES | IC50 [1] [µM] | IC50 [2] [µM] | Kd [3] [µM] | IC50 [4] [µM] | inhibition at 50 µM [2] [%] |
| --- | --- | --- | --- | --- | --- |
| CC(C)N1CCn2c(CNC(=O)[C@H](NC(=O)c3cccn4c(=O)[nH]nc34)c3ccccc3)cc(=O)c(O)c2C1=O | 9.87 | > 50 | > 100 | – | – |
| CCC(Nc1nc(-c2n[nH]c3ncc(F)cc23)ncc1F)C(=O)NCc1cc(=O)c(O)c2n1CCN(C(C)C)C2=O (stereo not shown) | 12.2 | > 50 | – | – | – |
| CC(C)N1CCn2c(CNC(=O)c3ccc4n[nH]c(=O)n4c3)cc(=O)c(O)c2C1=O | 0.87 | > 50 | 187 | – | – |
| CC(C)N1CCn2c(CNC(=O)c3c[nH]c4ncc(C5CC5)nc34)cc(=O)c(O)c2C1=O | 0.87 | > 25 | 12.8 | – | – |
| CC(C)N1CCn2c(CNC(=O)c3cccc(NC(=O)c4ccc5n[nH]c(=O)n5c4)c3)cc(=O)c(O)c2C1=O | 1.66 | 35.1 | 21.9 | – | – |
| CC(C)N1CCn2c(CNC(=O)[C@H]3CCC[C@@H](Nc4nc(-c5n[nH]c6ncc(F)cc56)ncc4F)C3)cc(=O)c(O)c2C1=O | > 25 | 15.1 | – | – | – |
| CC(C)N1CCn2c(COC(=O)c3cccn4c(=O)[nH]nc34)cc(=O)c(O)c2C1=O | 0.41 | > 50 | > 100 | – | – |
| CC(C)N1CCn2c(CNC(=O)CCCCCNc3nc(-c4n[nH]c5ncc(F)cc45)ncc3F)cc(=O)c(O)c2C1=O | 19.7 | 15 | 0.42 | – | – |
| CC(C)N1CCn2c(COC(=O)c3c[nH]c4ncc(C5CC5)nc34)cc(=O)c(O)c2C1=O | 0.49 | 68.7 | 9.3 | – | – |
| CC(C)N1CCn2c(CNC(=O)CCCCCNc3nc(C4=CN5C(=O)N=NC5C=C4)ncc3F)cc(=O)c(O)c2C1=O (stereo not shown) | – | > 25 | – | 5.35 | – |
| CC(C)N1CCn2c(CNc3nccc4[nH]ncc34)cc(=O)c(O)c2C1=O | 0.4 | > 50 | > 100 | – | – |
| CC(C)N1CCn2c(CNC(=O)c3n[nH]c4ncccc34)cc(=O)c(O)c2C1=O | 0.4 | > 50 | > 100 | – | – |
| CC(C)N1CCn2c(CNC(=O)[C@H](NC(=O)c3c[nH]c4ncc(C5CC5)nc34)C3CC3)cc(=O)c(O)c2C1=O | – | – | – | 0.22 | 47 |
| CCC(NC(=O)c1cccn2c(=O)[nH]nc12)C(=O)NCc1cc(=O)c(O)c2n1CCN(C(C)C)C2=O (stereo not shown) | 0.43 | > 50 | 6.3 | – | – |
| CC(C)[C@H](Nc1nc(C2=CN3C(=O)N=NC3C=C2)ncc1F)C(=O)NCc1cc(=O)c(O)c2n1CCN(C(C)C)C2=O (stereo partly shown) | – | > 50 | – | > 50 | – |
| CC(C)N1CCn2c(CNC(=O)C3(NC(=O)c4cccn5c(=O)[nH]nc45)CCCCC3)cc(=O)c(O)c2C1=O | 2.84 | > 50 | > 25 | – | – |
| CC(C)N1CCn2c(CNCCNc3cc4[nH]ccc4c(Cl)n3)cc(=O)c(O)c2C1=O | 0.58 | > 50 | – | – | – |
| CC(C)N1CCn2c(CNC(=O)c3cccc(NC(=O)c4n[nH]c5ncccc45)c3)cc(=O)c(O)c2C1=O [drawing 28] | 1.51 | > 50 | 26.3 | – | – |
| CC(C)N1CCn2c(COCCOc3nccc4[nH]ncc34)cc(=O)c(O)c2C1=O | 0.37 | > 50 | > 100 | – | – |
| CC(C)N1CCn2c(CNC(=O)CC(Nc3nc(-c4n[nH]c5ncc(F)cc45)ncc3F)C3CC3)cc(=O)c(O)c2C1=O (stereo not shown) | 19.7 | 48 | 8.16 | – | – |
| CC(C)N1CCn2c(CNC(=O)[C@H](Cc3cccc(Cl)c3)NC(=O)c3cccn4c(=O)[nH]nc34)cc(=O)c(O)c2C1=O | 0.291 | 31.2 | 475 | – | – |
